Source: PubChem BioAssay (NCI)
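Briefly, cells in 96-well plates were exposed to five compound concentrations for 48 h, and endpoints were estimated by linear interpolation. GI50 marks 50% less growth. The concentration for full growth arrest is given as TGI.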

How the values were obtained:
Test in all cases: growth of human tumour cells (NCI), 48 h; in the data active = GI50 below about 0.43 µM; inactive = the rest
[1] = tested on: 786-0 renal
[2] = tested on: A498 renal
[3] = tested on: A549 NSCLC
[4] = tested on: ACHN renal
[5] = tested on: BT-549 breast
[6] = tested on: CAKI-1 renal
[7] = tested on: CCRF-CEM leukemia
[8] = tested on: COLO 205 colon
[9] = tested on: DU-145 prostate
[10] = tested on: EKVX NSCLC
[11] = tested on: HCC-2998 colon
[12] = tested on: HCT-116 colon
[13] = tested on: HCT-15 colon
[14] = tested on: HL-60(TB) leukemia
[15] = tested on: HOP-62 NSCLC
[16] = tested on: HOP-92 NSCLC
[17] = tested on: HS 578T breast
[18] = tested on: HT29 colon
[19] = tested on: IGROV1 ovarian
[20] = tested on: K-562 leukemia
[21] = tested on: KM12 colon
[22] = tested on: LOX IMVI melanoma
[23] = tested on: M14 melanoma
[24] = tested on: MALME-3M melanoma
[25] = tested on: MCF7 breast
[26] = tested on: MDA-MB-231 breast
[27] = tested on: MDA-MB-435
[28] = tested on: MOLT-4 leukemia
[29] = tested on: NCI-H226 lung
[30] = tested on: NCI-H23 lung
[31] = tested on: NCI-H460 lung
[32] = tested on: NCI-H522 lung
[33] = tested on: NCI/ADR-RES ovarian
[34] = tested on: OVCAR-3 ovarian
[35] = tested on: OVCAR-4 ovarian
[36] = tested on: OVCAR-5 ovarian
[37] = tested on: OVCAR-8 ovarian
[38] = tested on: PC-3 prostate
[39] = tested on: RPMI-8226 leukemia
[40] = tested on: SF-268 CNS
[41] = tested on: SF-295 CNS
[42] = tested on: SF-539 CNS
[43] = tested on: SK-MEL-2 melanoma
[44] = tested on: SK-MEL-28 melanoma
[45] = tested on: SK-MEL-5 melanoma
[46] = tested on: SK-OV-3 ovarian
[47] = tested on: SN12C renal
[48] = tested on: SNB-19 CNS
[49] = tested on: SNB-75 CNS
[50] = tested on: SR leukemia
[51] = tested on: SW-620 colon
[52] = tested on: T-47D breast
[53] = tested on: TK-10 renal
[54] = tested on: U251 CNS
[55] = tested on: UACC-257 melanoma
[56] = tested on: UACC-62 melanoma
[57] = tested on: UO-31 renal

O=C(CCCCCCNC(=O)C(O)(O)C(F)(F)F)Nc1ccc(Br)cc1
8.46 µM: TGI [45]
22.8 µM: TGI [32]
24.3 µM: TGI [21] | TGI [52]
8.17 µM: TGI [41]
17.6 µM: TGI [54]
9.68 µM: TGI [2]
> 33 µM: TGI [1] | TGI [3] | TGI [5] | TGI [6] | TGI [7] | TGI [9] | TGI [10] | TGI [12] | TGI [14] | TGI [15] | TGI [18] | TGI [20] | TGI [23] | TGI [24] | TGI [25] | TGI [27] | TGI [28] | TGI [29] | TGI [31] | TGI [35] | TGI [37] | TGI [38] | TGI [39] | TGI [42] | TGI [49] | TGI [50] | TGI [53] | TGI [55]
3.25 µM: TGI [16]
13.2 µM: TGI [11]
16.6 µM: TGI [26]
18.6 µM: TGI [33]
30.1 µM: TGI [17]
17.3 µM: TGI [46]
12.5 µM: TGI [36]
18.1 µM: TGI [48]
6.2 µM: TGI [56]
14.1 µM: TGI [13] | TGI [19]
24.6 µM: TGI [47]
7.16 µM: TGI [51]
inactive: GI50 [1] 4.47 µM | GI50 [2] 1.09 µM | GI50 [3] 8.39 µM | GI50 [4] 2.65 µM | GI50 [5] 6.42 µM | GI50 [6] 7.02 µM | GI50 [7] 1.9 µM | GI50 [8] 5.02 µM | GI50 [9] 5.46 µM | GI50 [10] 5.49 µM | GI50 [11] 5.35 µM | GI50 [12] 1.12 µM | GI50 [13] 5.23 µM | GI50 [14] 2.21 µM | GI50 [15] 4.29 µM | GI50 [16] 0.554 µM | GI50 [17] 3.84 µM | GI50 [18] 5.11 µM | GI50 [19] 4.48 µM | GI50 [20] 1.2 µM | GI50 [21] 4.82 µM | GI50 [22] 2.9 µM | GI50 [23] 7.12 µM | GI50 [24] 1.54 µM | GI50 [25] 7.77 µM | GI50 [26] 2.12 µM | GI50 [27] 3.64 µM | GI50 [28] 1.42 µM | GI50 [29] 8.33 µM | GI50 [30] 4.6 µM | GI50 [31] 2.41 µM | GI50 [32] 4.19 µM | GI50 [33] 4.12 µM | GI50 [34] 2.22 µM | GI50 [35] 13.4 µM | GI50 [36] 1.96 µM | GI50 [37] 2.32 µM | GI50 [38] 2.86 µM | GI50 [39] 1.9 µM | GI50 [40] 5.78 µM | GI50 [41] 2.73 µM | GI50 [42] 5.87 µM | GI50 [43] 3.29 µM | GI50 [44] 2.38 µM | GI50 [45] 4.14 µM | GI50 [46] 1.95 µM | GI50 [47] 5.01 µM | GI50 [48] 5.58 µM | GI50 [49] 3 µM | GI50 [50] 1.74 µM | GI50 [51] 1.57 µM | GI50 [52] 1.69 µM | GI50 [53] 1.09 µM | GI50 [54] 3.64 µM | GI50 [55] 6.7 µM | GI50 [56] 1.59 µM | GI50 [57] 1.98 µM
18.7 µM: TGI [44]
7.5 µM: TGI [22] | TGI [34]
14.8 µM: TGI [57]
17.7 µM: TGI [4] | TGI [8]
19.6 µM: TGI [30]
20.1 µM: TGI [43]
21.8 µM: TGI [40]
